Data from PubChem BioAssay (NCI).
Several values for one entry are separate records, joined by “and”; a condition that tells them apart may be missing. Equal values may be shown once.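 The compound was tested at five concentrations on cells cultured in 96-well plates, with a 48-hour exposure period. The concentration for 50% growth inhibition is given as GI50. TGI denotes the concentration required for complete inhibition of growth.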

These compounds were tested on COLO 205 colon (assay: NCI-60 cell line screen, 48 h).

| Structure (SMILES) | TGI [µM] |
| --- | --- |
| COc1ccc(-c2oc(/C=N/NC(N)=S)c([N+](=O)[O-])c2-c2ccc(OC)c(OC)c2)cc1OC | > 100 |
| COc1c(O)c2c3c(c(C)cc(O)c3c1O)C(=O)C(O)(C(C)(C)C(C)=O)C2=O (stereo unspecified) | > 100 |
| Nc1nc(N)c(N=O)c(Nc2ccc(Br)cc2)n1 | 38.8 |

These compounds were tested on XF 498 CNS (assay: NCI-60 cell line screen, 48 h).

| Structure (SMILES) | TGI [µM] |
| --- | --- |
| Cc1cn([C@@H]2C[C@H](CO)[C@@H](O)C2)c(=O)[nH]c1=O | > 100 |
| O=c1[nH]cnc(NC2C=C(CO)C(O)C2O)c1[N+](=O)[O-] (stereo unspecified) | > 100 |
| O=C1NCCS(=O)(=O)N[C@@H](CC2=CC=CCC2)C(=O)N2CCCC12 (stereo partly specified) | > 100 |
| COc1ccc(-c2oc(/C=N/NC(N)=S)c([N+](=O)[O-])c2-c2ccc(OC)c(OC)c2)cc1OC | > 100 |
| COc1c(O)c2c3c(c(C)cc(O)c3c1O)C(=O)C(O)(C(C)(C)C(C)=O)C2=O (stereo unspecified) | > 100 |
| Nc1nc(N)c(N=O)c(Nc2ccc(Br)cc2)n1 | 65.4 |

What follows are compounds tested on UACC-62 melanoma (assay: NCI-60 cell line screen, 48 h).

| Structure (SMILES) | TGI [µM] | GI50 |
| --- | --- | --- |
| CCN(CC)CCCNC(=O)c1ccc([N+](=O)[O-])cc1O | > 100 |  |
| Cc1cn([C@@H]2C[C@H](CO)[C@@H](O)C2)c(=O)[nH]c1=O | > 100 |  |
| O=c1[nH]cnc(NC2C=C(CO)C(O)C2O)c1[N+](=O)[O-] (stereo unspecified) | > 100 |  |
| O=C1NCCS(=O)(=O)N[C@@H](CC2=CC=CCC2)C(=O)N2CCCC12 (stereo partly specified) | > 100 |  |
| COc1ccc(-c2oc(/C=N/NC(N)=S)c([N+](=O)[O-])c2-c2ccc(OC)c(OC)c2)cc1OC | 78.5 |  |
| COc1c(O)c2c3c(c(C)cc(O)c3c1O)C(=O)C(O)(C(C)(C)C(C)=O)C2=O (stereo unspecified) | > 100 | 39.9 µM and > 100 µM |
| Nc1nc(N)c(N=O)c(Nc2ccc(Br)cc2)n1 | 19.4 |  |

The compounds below were run on SK-MEL-2 melanoma (assay: NCI-60 cell line screen, 48 h).

| Structure (SMILES) | TGI [µM] |
| --- | --- |
| CCN(CC)CCCNC(=O)c1ccc([N+](=O)[O-])cc1O | > 100 |
| Cc1cn([C@@H]2C[C@H](CO)[C@@H](O)C2)c(=O)[nH]c1=O | > 100 |
| O=c1[nH]cnc(NC2C=C(CO)C(O)C2O)c1[N+](=O)[O-] (stereo unspecified) | > 100 |
| O=C1NCCS(=O)(=O)N[C@@H](CC2=CC=CCC2)C(=O)N2CCCC12 (stereo partly specified) | > 100 |
| COc1ccc(-c2oc(/C=N/NC(N)=S)c([N+](=O)[O-])c2-c2ccc(OC)c(OC)c2)cc1OC | 35.2 |
| COc1c(O)c2c3c(c(C)cc(O)c3c1O)C(=O)C(O)(C(C)(C)C(C)=O)C2=O (stereo unspecified) | > 100 |
| Nc1nc(N)c(N=O)c(Nc2ccc(Br)cc2)n1 | 49.6 |

These compounds were tested on SNB-78 CNS (assay: NCI-60 cell line screen, 48 h).

| Structure (SMILES) | TGI [µM] |
| --- | --- |
| CCN(CC)CCCNC(=O)c1ccc([N+](=O)[O-])cc1O | > 100 |
| Cc1cn([C@@H]2C[C@H](CO)[C@@H](O)C2)c(=O)[nH]c1=O | > 100 |
| O=c1[nH]cnc(NC2C=C(CO)C(O)C2O)c1[N+](=O)[O-] (stereo unspecified) | > 100 |
| O=C1NCCS(=O)(=O)N[C@@H](CC2=CC=CCC2)C(=O)N2CCCC12 (stereo partly specified) | > 100 |
| COc1c(O)c2c3c(c(C)cc(O)c3c1O)C(=O)C(O)(C(C)(C)C(C)=O)C2=O (stereo unspecified) | > 100 |
| Nc1nc(N)c(N=O)c(Nc2ccc(Br)cc2)n1 | > 100 |

What follows are compounds tested on HOP-18 NSCLC (assay: NCI-60 cell line screen, 48 h).

| Structure (SMILES) | TGI [µM] |
| --- | --- |
| Cc1cn([C@@H]2C[C@H](CO)[C@@H](O)C2)c(=O)[nH]c1=O | > 100 |
| O=c1[nH]cnc(NC2C=C(CO)C(O)C2O)c1[N+](=O)[O-] (stereo unspecified) | > 100 |
| O=C1NCCS(=O)(=O)N[C@@H](CC2=CC=CCC2)C(=O)N2CCCC12 (stereo partly specified) | > 100 |
| COc1c(O)c2c3c(c(C)cc(O)c3c1O)C(=O)C(O)(C(C)(C)C(C)=O)C2=O (stereo unspecified) | > 100 |
| Nc1nc(N)c(N=O)c(Nc2ccc(Br)cc2)n1 | > 100 |

The compounds below were run on SN12C renal (assay: NCI-60 cell line screen, 48 h).

| Structure (SMILES) | TGI [µM] |
| --- | --- |
| CCN(CC)CCCNC(=O)c1ccc([N+](=O)[O-])cc1O | > 100 |
| Cc1cn([C@@H]2C[C@H](CO)[C@@H](O)C2)c(=O)[nH]c1=O | > 100 |
| O=c1[nH]cnc(NC2C=C(CO)C(O)C2O)c1[N+](=O)[O-] (stereo unspecified) | > 100 |
| O=C1NCCS(=O)(=O)N[C@@H](CC2=CC=CCC2)C(=O)N2CCCC12 (stereo partly specified) | > 100 |
| COc1ccc(-c2oc(/C=N/NC(N)=S)c([N+](=O)[O-])c2-c2ccc(OC)c(OC)c2)cc1OC | > 100 |
| COc1c(O)c2c3c(c(C)cc(O)c3c1O)C(=O)C(O)(C(C)(C)C(C)=O)C2=O (stereo unspecified) | > 100 |
| Nc1nc(N)c(N=O)c(Nc2ccc(Br)cc2)n1 | > 100 |

The compounds below were run on ACHN renal (assay: NCI-60 cell line screen, 48 h).

| Structure (SMILES) | TGI [µM] |
| --- | --- |
| CCN(CC)CCCNC(=O)c1ccc([N+](=O)[O-])cc1O | > 100 |
| Cc1cn([C@@H]2C[C@H](CO)[C@@H](O)C2)c(=O)[nH]c1=O | > 100 |
| O=c1[nH]cnc(NC2C=C(CO)C(O)C2O)c1[N+](=O)[O-] (stereo unspecified) | > 100 |
| O=C1NCCS(=O)(=O)N[C@@H](CC2=CC=CCC2)C(=O)N2CCCC12 (stereo partly specified) | > 100 |
| COc1ccc(-c2oc(/C=N/NC(N)=S)c([N+](=O)[O-])c2-c2ccc(OC)c(OC)c2)cc1OC | 76.3 |
| COc1c(O)c2c3c(c(C)cc(O)c3c1O)C(=O)C(O)(C(C)(C)C(C)=O)C2=O (stereo unspecified) | > 100 |
| Nc1nc(N)c(N=O)c(Nc2ccc(Br)cc2)n1 | 49.3 |

The compounds below were run on DLD-1 colon (assay: NCI-60 cell line screen, 48 h).

| Structure (SMILES) | TGI [µM] |
| --- | --- |
| CCN(CC)CCCNC(=O)c1ccc([N+](=O)[O-])cc1O | > 100 |
| Cc1cn([C@@H]2C[C@H](CO)[C@@H](O)C2)c(=O)[nH]c1=O | > 100 |
| O=c1[nH]cnc(NC2C=C(CO)C(O)C2O)c1[N+](=O)[O-] (stereo unspecified) | > 100 |
| O=C1NCCS(=O)(=O)N[C@@H](CC2=CC=CCC2)C(=O)N2CCCC12 (stereo partly specified) | > 100 |
| COc1ccc(-c2oc(/C=N/NC(N)=S)c([N+](=O)[O-])c2-c2ccc(OC)c(OC)c2)cc1OC | > 100 |
| COc1c(O)c2c3c(c(C)cc(O)c3c1O)C(=O)C(O)(C(C)(C)C(C)=O)C2=O (stereo unspecified) | > 100 |
| Nc1nc(N)c(N=O)c(Nc2ccc(Br)cc2)n1 | > 100 |
